Drawing on ChEMBL document CHEMBL3046687, “New thiazolidine-2,4-diones as antimicrobial and cytotoxic agent” (Med Chem Res, 2012), this text covers MIC and IC50 for 15 compounds.

In one assay the test system is Aspergillus niger. Briefly: Antimicrobial activity against Aspergillus niger ATCC 6275 after 48 hr by two-foldserial dilution method. It counts as functional. Particulars: ATCC 6275, 48 h.
The test system of the next assay is Candida albicans. Briefly: Antimicrobial activity against Candida albicans ATCC 2091 after 48 hr by two-fold serial dilution method. It counts as functional. Particulars: ATCC 2091, 48 h.
The subject of the next assay is Enterococcus faecalis. Briefly: Antimicrobial activity against Enterococcus faecalis ATCC 35550 after 24 hr by two-fold serial dilution method. The assay is classed as functional. To be noted: ATCC 35550, 24 h.
A further assay relates to MCF7. In words: Cytotoxicity against Homo sapiens (human) MCF7 cells after 24 hr by MTT assay. The assay is classed as functional, cell-based. To be noted: MCF7, 24 h.
The subject of the next assay is A549. In words: Cytotoxicity against Homo sapiens (human) A549 cells after 24 hr by MTT assay. It counts as functional, cell-based. Particulars: A549, 24 h.
The test system of another assay is Cryptococcus neoformans. In words: Antimicrobial activity against Cryptococcus neoformans clinical isolate after 48 hr by two-fold serial dilution method. The assay is classed as functional.
A further assay relates to HeLa. Briefly: Cytotoxicity against Homo sapiens (human) HeLa cells after 24 hr by MTT assay. It counts as functional, cell-based.
The test system of a further assay is Pseudomonas aeruginosa. In words: Antimicrobial activity against Pseudomonas aeruginosa ATCC 25619 after 24 hr by two-fold serial dilution method. The assay is classed as functional. Particulars: ATCC 25619, 24 h.
The test system of the next assay is Staphylococcus aureus. Briefly: Antimicrobial activity against Staphylococcus aureus ATCC 25923 after 24 hr by two fold serial dilution method. The assay is classed as functional. To be noted: ATCC 25923, 24 h.
The subject of another assay is Escherichia coli. Briefly: Antimicrobial activity against Escherichia coli ATCC 35218 after 24 hr by two-fold serial dilution method. The assay is classed as functional. To be noted: ATCC 35218, 24 h.
The subject of the next assay is HT-29. In words: Cytotoxicity against Homo sapiens (human) HT-29 cells after 24 hr by MTT assay. The assay is classed as functional, cell-based. To be noted: HT-29, 24 h.
A further assay concerns Aspergillus flavus. In words: Antimicrobial activity against Aspergillus flavus NCIM 524 after 48 hr by two-fold serial dilution method. To be noted: NCIM 524, 48 h. The assay is classed as functional.

Values after ≈ are worked out from the molar mass of the structure shown.

As to `O=C(O)c1ccc(CN2C(=O)S/C(=C\c3ccccc3)C2=O)cc1`, the MIC is 16 µg/mL (≈ 47.1 µM) with Aspergillus niger; 16 µg/mL (≈ 47.1 µM) in the assay with Candida albicans; 64 µg/mL (≈ 189 µM) in the assay on Enterococcus faecalis; 16 µg/mL (≈ 47.1 µM) with Cryptococcus neoformans; 8 µg/mL (≈ 23.6 µM) in the assay on Pseudomonas aeruginosa; 128 µg/mL (≈ 377 µM) against Staphylococcus aureus. Further, the minimal inhibitory concentration (MIC) against Escherichia coli came out at 4 µg/mL (≈ 11.8 µM); against Aspergillus flavus, 32 µg/mL (≈ 94.3 µM). Moreover, the IC50 amounted to 100 µM with MCF7, 90 µM in the assay on A549, 72 µM with HeLa and 88 µM in the assay with HT-29.
`O=C(O)c1ccc(CN2C(=O)S/C(=C\c3ccc(Br)cc3)C2=O)cc1`: the minimal inhibitory concentration (MIC) in the assay on Aspergillus niger was found to be 32 µg/mL (≈ 76.5 µM); against Candida albicans it was 16 µg/mL (≈ 38.3 µM); in the assay with Enterococcus faecalis, 128 µg/mL (≈ 306 µM); in the assay with Cryptococcus neoformans, 16 µg/mL (≈ 38.3 µM); in the assay with Pseudomonas aeruginosa, 4 µg/mL (≈ 9.56 µM); in the assay with Staphylococcus aureus, 128 µg/mL (≈ 306 µM). For the same compound, the minimal inhibitory concentration (MIC) is 4 µg/mL (≈ 9.56 µM) against Escherichia coli and 16 µg/mL (≈ 38.3 µM) in the assay on Aspergillus flavus. Besides, the IC50 with MCF7 worked out at 48 µM; with A549, 42 µM; in the assay with HeLa it was 38 µM; in the assay with HT-29, 30 µM.
In the case of `O=C(O)c1ccc(CN2C(=O)S/C(=C\c3ccc(F)cc3)C2=O)cc1`, the MIC was 4 µg/mL (≈ 11.2 µM) against Aspergillus niger; 2 µg/mL (≈ 5.6 µM) in the assay with Candida albicans; 4 µg/mL (≈ 11.2 µM) with Enterococcus faecalis; 4 µg/mL (≈ 11.2 µM) with Cryptococcus neoformans; 4 µg/mL (≈ 11.2 µM) in the assay on Pseudomonas aeruginosa; 2 µg/mL (≈ 5.6 µM) against Staphylococcus aureus. The MIC against Escherichia coli and in the assay with Aspergillus flavus was 4 µg/mL (≈ 11.2 µM) throughout. In addition, the IC50 with MCF7 was found to be 38 µM; in the assay on A549, 36 µM; with HeLa it was 34 µM; in the assay with HT-29, 32 µM.
On to `Cc1ccc(/C=C2\SC(=O)N(Cc3ccc(C(=O)O)cc3)C2=O)cc1`, for which the minimal inhibitory concentration (MIC) in the assay on Aspergillus niger turned out to be 64 µg/mL (≈ 181 µM); against Candida albicans it was 64 µg/mL (≈ 181 µM); in the assay with Enterococcus faecalis it was 32 µg/mL (≈ 90.5 µM); with Cryptococcus neoformans, 64 µg/mL (≈ 181 µM); with Pseudomonas aeruginosa, 16 µg/mL (≈ 45.3 µM); against Staphylococcus aureus, 32 µg/mL (≈ 90.5 µM). Further, the MIC in the assay with Escherichia coli came to 16 µg/mL (≈ 45.3 µM); against Aspergillus flavus it was 32 µg/mL (≈ 90.5 µM). Moreover, the IC50 in the assay with MCF7 was 100 µM; in the assay with A549, 78 µM; with HeLa, 68 µM; with HT-29, 72 µM.
Turning to `COc1cccc(/C=C2\SC(=O)N(Cc3ccc(C(=O)O)cc3)C2=O)c1`, the minimal inhibitory concentration (MIC) against Aspergillus niger came out at 32 µg/mL (≈ 86.6 µM); with Candida albicans it was 32 µg/mL (≈ 86.6 µM); in the assay with Enterococcus faecalis it was 16 µg/mL (≈ 43.3 µM); with Cryptococcus neoformans, 16 µg/mL (≈ 43.3 µM); with Pseudomonas aeruginosa, 8 µg/mL (≈ 21.7 µM); in the assay on Staphylococcus aureus it was 16 µg/mL (≈ 43.3 µM). Further, the MIC against Escherichia coli came to 8 µg/mL (≈ 21.7 µM); with Aspergillus flavus it was 32 µg/mL (≈ 86.6 µM). Besides, the 50% inhibitory concentration (IC50) was 58 µM with MCF7, 55 µM in the assay on A549, 48 µM in the assay with HeLa and 48 µM in the assay on HT-29.
Consider `COc1ccc(/C=C2\SC(=O)N(Cc3ccc(C(=O)O)cc3)C2=O)cc1`, for which the MIC in the assay with Aspergillus niger came out at 32 µg/mL (≈ 86.6 µM); against Candida albicans, 16 µg/mL (≈ 43.3 µM); against Enterococcus faecalis, 16 µg/mL (≈ 43.3 µM); in the assay with Cryptococcus neoformans it was 16 µg/mL (≈ 43.3 µM); with Pseudomonas aeruginosa, 32 µg/mL (≈ 86.6 µM); in the assay with Staphylococcus aureus, 16 µg/mL (≈ 43.3 µM). The MIC in the assay on Escherichia coli and against Aspergillus flavus was 32 µg/mL (≈ 86.6 µM) each time. Further, the IC50 was determined as 48 µM in the assay on MCF7, 44 µM in the assay on A549, 40 µM in the assay on HeLa and 44 µM with HT-29.
As for `COc1cc(/C=C2\SC(=O)N(Cc3ccc(C(=O)O)cc3)C2=O)cc(OC)c1OC`, the MIC was determined as 4 µg/mL (≈ 9.31 µM) against Aspergillus niger; 2 µg/mL (≈ 4.66 µM) against Candida albicans; 8 µg/mL (≈ 18.6 µM) with Enterococcus faecalis; 4 µg/mL (≈ 9.31 µM) against Cryptococcus neoformans; 8 µg/mL (≈ 18.6 µM) against Pseudomonas aeruginosa; 8 µg/mL (≈ 18.6 µM) against Staphylococcus aureus. Also, the minimum inhibitory concentration (MIC) was 8 µg/mL (≈ 18.6 µM) against Escherichia coli and 4 µg/mL (≈ 9.31 µM) against Aspergillus flavus. The concentration for half-maximal inhibition (IC50) was 30 µM in the assay with MCF7, 36 µM in the assay on A549, 30 µM with HeLa and 32 µM with HT-29.
Turning to `O=C(O)c1ccc(CN2C(=O)S/C(=C\c3ccccn3)C2=O)cc1`, the MIC was determined as 32 µg/mL (≈ 94 µM) in the assay with Aspergillus niger; 32 µg/mL (≈ 94 µM) against Candida albicans; 64 µg/mL (≈ 188 µM) against Enterococcus faecalis; 16 µg/mL (≈ 47 µM) with Cryptococcus neoformans; 16 µg/mL (≈ 47 µM) in the assay with Pseudomonas aeruginosa; 64 µg/mL (≈ 188 µM) against Staphylococcus aureus. In addition, the MIC in the assay on Escherichia coli and in the assay on Aspergillus flavus was 16 µg/mL (≈ 47 µM) throughout. For the same compound, the half-maximal inhibitory concentration (IC50) in the assay on MCF7 was determined as 90 µM; with A549, 80 µM; with HeLa, 62 µM; with HT-29, 78 µM.
`O=C(O)c1ccc(CN2C(=O)S/C(=C\c3cccnc3)C2=O)cc1`: the MIC in the assay on Aspergillus niger was found to be 16 µg/mL (≈ 47 µM); in the assay with Candida albicans it was 32 µg/mL (≈ 94 µM); in the assay with Enterococcus faecalis it was 128 µg/mL (≈ 376 µM); in the assay on Cryptococcus neoformans it was 32 µg/mL (≈ 94 µM); with Pseudomonas aeruginosa it was 32 µg/mL (≈ 94 µM); with Staphylococcus aureus it was 128 µg/mL (≈ 376 µM). The MIC against Escherichia coli stood at 32 µg/mL (≈ 94 µM); in the assay with Aspergillus flavus, 16 µg/mL (≈ 47 µM). Moreover, the concentration for half-maximal inhibition (IC50) in the assay with MCF7 was determined as 100 µM; in the assay on A549, 75 µM; with HeLa, 88 µM; in the assay with HT-29, 90 µM.
`O=C(O)c1ccc(CN2C(=O)S/C(=C\c3ccncc3)C2=O)cc1`: the MIC against Aspergillus niger stood at 32 µg/mL (≈ 94 µM); against Candida albicans it was 16 µg/mL (≈ 47 µM); in the assay with Enterococcus faecalis it was 16 µg/mL (≈ 47 µM); against Cryptococcus neoformans, 16 µg/mL (≈ 47 µM); against Pseudomonas aeruginosa, 16 µg/mL (≈ 47 µM); in the assay with Staphylococcus aureus, 32 µg/mL (≈ 94 µM). Further, the results for the minimum inhibitory concentration (MIC) in the assay with Escherichia coli and in the assay with Aspergillus flavus were 16 µg/mL (≈ 47 µM) and 32 µg/mL (≈ 94 µM), respectively. Further, the IC50 in the assay on MCF7 amounted to 84 µM; in the assay with A549, 72 µM; with HeLa, 60 µM; in the assay with HT-29, 80 µM.
As to `O=C(O)c1ccc(CN2C(=O)S/C(=C\c3ccco3)C2=O)cc1`, the minimum inhibitory concentration (MIC) was found to be 32 µg/mL (≈ 97.2 µM) with Aspergillus niger; 64 µg/mL (≈ 194 µM) against Candida albicans; 64 µg/mL (≈ 194 µM) in the assay on Enterococcus faecalis; 64 µg/mL (≈ 194 µM) with Cryptococcus neoformans; 16 µg/mL (≈ 48.6 µM) against Pseudomonas aeruginosa; 32 µg/mL (≈ 97.2 µM) in the assay on Staphylococcus aureus. Further, the MIC was determined as 16 µg/mL (≈ 48.6 µM) against Escherichia coli and 32 µg/mL (≈ 97.2 µM) against Aspergillus flavus. Further, the 50% inhibitory concentration (IC50) in the assay with MCF7 came to 90 µM; with A549, 76 µM; with HeLa, 80 µM; in the assay on HT-29, 94 µM.
Take `O=C(O)c1ccc(CN2C(=O)S/C(=C\c3cccs3)C2=O)cc1`: the MIC in the assay on Aspergillus niger is 8 µg/mL (≈ 23.2 µM); in the assay with Candida albicans, 32 µg/mL (≈ 92.6 µM); against Enterococcus faecalis, 32 µg/mL (≈ 92.6 µM); in the assay on Cryptococcus neoformans, 32 µg/mL (≈ 92.6 µM); in the assay on Pseudomonas aeruginosa, 16 µg/mL (≈ 46.3 µM); in the assay on Staphylococcus aureus it was 16 µg/mL (≈ 46.3 µM). In addition, the MIC against Escherichia coli and in the assay on Aspergillus flavus was 8 µg/mL (≈ 23.2 µM) in each case. Besides, the IC50 in the assay on MCF7 amounted to 76 µM; in the assay with A549, 80 µM; in the assay on HeLa, 76 µM; in the assay with HT-29, 88 µM.
As to `Cn1cccc1/C=C1\SC(=O)N(Cc2ccc(C(=O)O)cc2)C1=O`, the minimal inhibitory concentration (MIC) in the assay with Aspergillus niger came to 16 µg/mL (≈ 46.7 µM); against Candida albicans, 32 µg/mL (≈ 93.5 µM); with Enterococcus faecalis, 64 µg/mL (≈ 187 µM); in the assay on Cryptococcus neoformans, 32 µg/mL (≈ 93.5 µM); in the assay with Pseudomonas aeruginosa, 16 µg/mL (≈ 46.7 µM); in the assay on Staphylococcus aureus it was 64 µg/mL (≈ 187 µM). Also, the MIC in the assay with Escherichia coli and against Aspergillus flavus was 16 µg/mL (≈ 46.7 µM) each time. Further, the IC50 in the assay with MCF7 worked out at 70 µM; with A549 it was 80 µM; in the assay on HeLa it was 90 µM; in the assay with HT-29, 88 µM.
`CC1(C)S[C@@H]2[C@H](NC(=O)[C@H](N)c3ccccc3)C(=O)N2[C@H]1C(=O)O` [AMPICILLIN]: the minimal inhibitory concentration (MIC) against Enterococcus faecalis and against Staphylococcus aureus was 2 µg/mL (≈ 5.72 µM) throughout.
Regarding `CC(=O)N1CCN(c2ccc(OCC3COC(Cn4ccnc4)(c4ccc(Cl)cc4Cl)O3)cc2)CC1` (configuration not stated) [KETOCONAZOLE], the MIC in the assay with Aspergillus niger was 2 µg/mL (≈ 3.76 µM); against Candida albicans it was 2 µg/mL (≈ 3.76 µM); with Cryptococcus neoformans it was 2 µg/mL (≈ 3.76 µM); against Aspergillus flavus, 1 µg/mL (≈ 1.88 µM).
